In PubChem BioAssay (NCI):
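Exposure lasted 48 hours, with cells grown in 96-well plates and compounds tested at five concentrations. GI50 = concentration required for 50% inhibition of growth. At the TGI there is no net growth.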

How the values were obtained:
Assay in all cases: DTP human tumour cell line panel, 48 h
[1] = test system: SF-268 CNS
[2] = test system: SN12C renal
[3] = test system: MOLT-4 leukemia
[4] = test system: MCF7 breast
[5] = test system: SK-MEL-28 melanoma
[6] = test system: SF-539 CNS
[7] = test system: HL-60(TB) leukemia
[8] = test system: HOP-92 NSCLC
[9] = test system: CCRF-CEM leukemia
[10] = test system: RPMI-8226 leukemia
[11] = test system: SW-620 colon
[12] = test system: K-562 leukemia
[13] = test system: HOP-62 NSCLC
[14] = test system: UO-31 renal
[15] = test system: OVCAR-5 ovarian
[16] = test system: T-47D breast
[17] = test system: HS 578T breast
[18] = test system: U251 CNS
[19] = test system: SNB-19 CNS
[20] = test system: COLO 205 colon
[21] = test system: EKVX NSCLC
[22] = test system: HCT-116 colon
[23] = test system: KM12 colon
[24] = test system: ACHN renal
[25] = test system: NCI-H226 lung
[26] = test system: SK-OV-3 ovarian
[27] = test system: A549 NSCLC
[28] = test system: UACC-257 melanoma
[29] = test system: HT29 colon
[30] = test system: HCT-15 colon
[31] = test system: BT-549 breast
[32] = test system: SNB-75 CNS
[33] = test system: OVCAR-3 ovarian
[34] = test system: DU-145 prostate
[35] = test system: 786-0 renal
[36] = test system: MDA-MB-231 breast
[37] = test system: NCI-H23 lung
[38] = test system: HCC-2998 colon
[39] = test system: LOX IMVI melanoma
[40] = test system: SF-295 CNS
[41] = test system: A498 renal
[42] = test system: NCI/ADR-RES ovarian
[43] = test system: TK-10 renal
[44] = test system: OVCAR-8 ovarian
[45] = test system: SR leukemia
[46] = test system: CAKI-1 renal
[47] = test system: RXF 393 renal
[48] = test system: SK-MEL-2 melanoma
[49] = test system: SK-MEL-5 melanoma
[50] = test system: MDA-MB-435
[51] = test system: MALME-3M melanoma
[52] = test system: UACC-62 melanoma
[53] = test system: PC-3 prostate
[54] = test system: OVCAR-4 ovarian
[55] = test system: M14 melanoma
[56] = test system: NCI-H460 lung
[57] = test system: IGROV1 ovarian
[58] = test system: NCI-H522 lung

Clc1ccc(CCC(Cn2ccnc2)Sc2c(Cl)cccc2Cl)cc1 (stereo unspecified)
GI50 [1]: 4.36 µM | TGI [1]: 20.2 µM | GI50 [2]: 2.82 µM | TGI [2]: 14.9 µM | GI50 [3]: 2.89 µM | TGI [3]: 8.21 µM | GI50 [4]: 3.43 µM | TGI [4]: 13.2 µM | GI50 [5]: 7.03 µM | TGI [5]: 19.5 µM | GI50 [6]: 4.71 µM | TGI [6]: 17.8 µM | GI50 [7]: 2.85 µM | TGI [7]: 5.72 µM | GI50 [8]: 1.79 µM | TGI [8]: 7.23 µM | GI50 [9]: 3.4 µM | TGI [9]: 14.1 µM | GI50 [10]: 3.25 µM | TGI [10]: > 100 µM | GI50 [11]: 3.43 µM | TGI [11]: 13.9 µM | GI50 [12]: 3.28 µM | TGI [12]: 11.7 µM | GI50 [13]: 6.03 µM | TGI [13]: 19.4 µM | GI50 [14]: 3.07 µM | TGI [14]: 13.8 µM | GI50 [15]: 6.56 µM | TGI [15]: 20.4 µM | GI50 [16]: 2.25 µM | TGI [16]: 10.5 µM | GI50 [17]: 3.28 µM | TGI [17]: 19.5 µM | GI50 [18]: 3.23 µM | TGI [18]: 14 µM | GI50 [19]: 5.07 µM | TGI [19]: 48.7 µM | GI50 [20]: 3.14 µM | TGI [20]: 11.1 µM | GI50 [21]: 2.64 µM | TGI [21]: 17 µM | GI50 [22]: 2.13 µM | TGI [22]: 5.3 µM | GI50 [23]: 3.19 µM | TGI [23]: 11.2 µM | GI50 [24]: 4.32 µM | TGI [24]: 15.1 µM | GI50 [25]: 5.59 µM | TGI [25]: 35.1 µM | GI50 [26]: 10.9 µM | TGI [26]: 22.8 µM | GI50 [27]: 3.5 µM | TGI [27]: 14.5 µM | GI50 [28]: 3.39 µM | TGI [28]: 13 µM | GI50 [29]: 1.78 µM | TGI [29]: 3.77 µM | GI50 [30]: 3.54 µM | TGI [30]: 13.7 µM | GI50 [31]: 4.3 µM | TGI [31]: 15.1 µM | GI50 [32]: 15.4 µM | TGI [32]: 36.4 µM | GI50 [33]: 3.34 µM | TGI [33]: 10.8 µM | GI50 [34]: 5.05 µM | TGI [34]: 16.8 µM | GI50 [35]: 3.49 µM | TGI [35]: 12.4 µM | GI50 [36]: 3.9 µM | TGI [36]: 18.8 µM | GI50 [37]: 3.41 µM | TGI [37]: 15.5 µM | GI50 [38]: 2.85 µM | TGI [38]: 11.8 µM | GI50 [39]: 2.11 µM | TGI [39]: 5.11 µM | GI50 [40]: 2.56 µM | TGI [40]: 11.9 µM | GI50 [41]: 1.59 µM | TGI [41]: 6.66 µM | GI50 [42]: 3 µM | TGI [42]: 11.7 µM | GI50 [43]: 3.52 µM | TGI [43]: 11.9 µM | GI50 [44]: 3.15 µM | TGI [44]: 14.3 µM | GI50 [45]: 3.64 µM | TGI [45]: 24 µM | GI50 [46]: 2.6 µM | TGI [46]: 10.5 µM | GI50 [47]: 2.57 µM | TGI [47]: 13.8 µM | GI50 [48]: 3.02 µM | TGI [48]: 7.29 µM | GI50 [49]: 2.08 µM | TGI [49]: 4.88 µM | GI50 [50]: 2.78 µM | TGI [50]: 10.3 µM | GI50 [51]: 2.92 µM | TGI [51]: 8.21 µM | GI50 [52]: 2.8 µM | TGI [52]: 12.5 µM | GI50 [53]: 2.64 µM | TGI [53]: 12.6 µM | GI50 [54]: 3.58 µM | TGI [54]: 16.5 µM | GI50 [55]: 4.29 µM | TGI [55]: 14.7 µM | GI50 [56]: 3.07 µM | TGI [56]: 10.8 µM | GI50 [57]: 4.45 µM | TGI [57]: 18.1 µM | GI50 [58]: 2.37 µM | TGI [58]: 7.5 µM
